Patent publication US20230293526A1, “METHOD FOR TREATING CANCER WITH A REVERSE TRANSCRIPTASE INHIBITOR” (PrimeFour Therapeutics, Inc., priority 2020, published 2023)

System: cancer cell lines
Experiment: Cancer cell proliferation activity of representative nucleosides, CellTiterGlo 72 h (Example 7, Tables 8 and 9)
Format: cell-based
Conditions: 72 h
Description: Dose response relationships on cell proliferation was assessed for representative nucleosides on cancer cell lines. Briefly, compound treatment of cells started one day after seeding with a final DMSO concentration of 0.1%, and was performed by nanodrop-dispensing using a Tecan Dispenser. 0.1% DMSO (solvent) and Staurosporine (10 μM) served as high control (100% viability) and low control (0% viability), respectively. Cells were cultured in the appropriate media. For the assays, cells were seeded in white cell culture-treated flat and clear bottom multiwell plates and incubated at 37° C. overnight before compound was added. After incubation for 72 h at 37° C. at 5% or 10% CO2 dependent on the medium, cell plates were equilibrated to room temperature for one hour, CellTiterGlo reagent (Promega) was added and luminescence was measured approximately an hour later using a luminometer.
Raw data were converted into percent cell viability relative to the high and low control, which were set to 100% and 0%, respectively.

IC50 (72 h, 5637, bladder): 230 nM | IC50 (CLS439, bladder): 3000 nM | IC50 (HS729, muscle): 550 nM | IC50 (J82, bladder): 840 nM | IC50 (JAR, placenta): > 50000 nM | IC50 (MT3, breast): 120 nM | IC50 (PC3, prostate): 200 nM | IC50 (RD, muscle): 1400 nM | IC50 (T24, bladder): 180 nM | IC50 (Homo sapiens, 22Rv1, 72 h, 22RV1, prostate): 1040 nM | IC50 (Homo sapiens, 786-0, 72 h, 786O, kidney): 1610 nM | IC50 (Homo sapiens, A204, 72 h, A204, muscle): 30 nM | IC50 (Homo sapiens, A549, 72 h, A549, lung): 880 nM | IC50 (Homo sapiens, A673, 72 h, A673, bone): 200 nM | IC50 (Homo sapiens, A2780, 72 h, A2780, ovary): 640 nM | IC50 (Homo sapiens, A-375, 72 h, A375, skin): 570 nM | IC50 (Homo sapiens, A-431, 72 h, A431, skin): 300 nM | IC50 (Homo sapiens, ACHN, kidney): 710 nM | IC50 (Homo sapiens, ASPC1, 72 h, ASPC1, pancreas): 280 nM | IC50 (Homo sapiens, BT-20, 72 h, BT20, breast): 1470 nM | IC50 (Homo sapiens, BXPC-3, 72 h, BXPC3, pancreas): 350 nM | IC50 (Homo sapiens, C-33-A, C33A, endometrial): 240 nM | IC50 (Homo sapiens, CAKI-1, 72 h, CAKI1, kidney): 110 nM | IC50 (Homo sapiens, COLO 205, 72 h, COLO205, colon): 160 nM | IC50 (Homo sapiens, COLO-678, 72 h, COLO678, colon): 10800 nM | IC50 (Homo sapiens, Ca-Ski, CASKI, endometrial): 5220 nM | IC50 (Homo sapiens, Caco-2, 72 h, CACO2, colon): > 50000 nM | IC50 (Homo sapiens, Calu-6, 72 h, CALU6, lung): 2540 nM | IC50 (Homo sapiens, DLD-1, 72 h, DLD1, colon): 770 nM | IC50 (Homo sapiens, DU-145, 72 h, DU145, prostate): 330 nM | IC50 (Homo sapiens, EFO-21, 72 h, EFO21, ovary): 1190 nM | IC50 (Homo sapiens, EJ-28, 72 h, EJ28, bladder): 2340 nM | IC50 (Homo sapiens, Granta-519, 72 h, GRANTA-519, hematological): 80 nM | IC50 (Homo sapiens, HCT-15, 72 h, HCT15, colon): 810 nM | IC50 (Homo sapiens, HCT-116, 72 h, HCT116, colon): 550 nM | IC50 (Homo sapiens, HEK293, 72 h, HEK293, kidney): 12700 nM | IC50 (Homo sapiens, HL-60, 72 h, HL-60, hematological): 540 nM | IC50 (Homo sapiens, HT-29, 72 h, HT29, colon): 1060 nM | IC50 (Homo sapiens, HT-1080, 72 h, HT1080, connective tissue): 350 nM | IC50 (Homo sapiens, HeLa, endometrial): 750 nM | IC50 (Homo sapiens, HepG2, 72 h, HEPG2, liver): 2670 nM | IC50 (Homo sapiens, Hs-578T, HS578T, breast): 1790 nM | IC50 (Homo sapiens, IGROV-1, 72 h, IGROV1, ovary): 1370 nM | IC50 (Homo sapiens, IMR-90, 72 h, IMR90, lung): 2730 nM | IC50 (Homo sapiens, JEG-3, 72 h, JEG3, placenta): 1900 nM | IC50 (Homo sapiens, JIMT-1, 72 h, JIMT1, breast): 210 nM | IC50 (Homo sapiens, K562, 72 h, K-562, hematological): 1610 nM | IC50 (Homo sapiens, Kasumi 1, 72 h, KASUMI-1, hematological): 220 nM | IC50 (Homo sapiens, L-363, 72 h, L-363, hematological): > 50000 nM | IC50 (Homo sapiens, LoVo, colon): 440 nM | IC50 (Homo sapiens, MCF7, 72 h, MCF7, breast): > 50000 nM | IC50 (Homo sapiens, MDA-MB-231, 72 h, MDAMB231, breast): 130 nM | IC50 (Homo sapiens, MDA-MB-435, 72 h, MDAMB435, skin): 2120 nM | IC50 (Homo sapiens, MDA-MB-436, 72 h, MDAMB436, breast): 360 nM | IC50 (Homo sapiens, MDA-MB-468, 72 h, MDAMB468, breast): 1200 nM | IC50 (Homo sapiens, MG-63, 72 h, MG63, bone): 570 nM | IC50 (Homo sapiens, MHH-ES-1, 72 h, MHHES1, bone): 210 nM | IC50 (Homo sapiens, MIA PaCa-2, 72 h, MIAPACA2, pancreas): 1930 nM | IC50 (Homo sapiens, MINO, hematological): 70 nM | IC50 (Homo sapiens, MV4-11, 72 h, MV4-11, hematological): 600 nM | IC50 (Homo sapiens, NCI-H23, 72 h, NCI-H23, lung): 1340 nM | IC50 (Homo sapiens, NCI-H82, 72 h, NCIH82, lung): > 50000 nM | IC50 (Homo sapiens, NCI-H292, 72 h, NCIH292, lung): 790 nM | IC50 (Homo sapiens, NCI-H460, 72 h, NCIH460, ung): 2050 nM | IC50 (Homo sapiens, OVCAR-3, 72 h, OVCAR3, ovary): 580 nM | IC50 (Homo sapiens, OVCAR-4, 72 h, OVCAR4, ovary): 4180 nM | IC50 (Homo sapiens, PANC-1, 72 h, PANC1, pancreas): 3430 nM | IC50 (Homo sapiens, PLC-PRF-5, 72 h, PLCPRF5, liver): > 50000 nM | IC50 (Homo sapiens, Panc1005, 72 h, PANC1005, pancreas): 650 nM | IC50 (Homo sapiens, Ramos, hematological): 170 nM | IC50 (Homo sapiens, SAOS-2, 72 h, SAOS2, bone): 110 nM | IC50 (Homo sapiens, SF-268, 72 h, SF268, brain): 350 nM | IC50 (Homo sapiens, SF-295, 72 h, SF295, brain): 1130 nM | IC50 (Homo sapiens, SK-BR-3, 72 h, SKBR3, breast): 650 nM | IC50 (Homo sapiens, SK-HEP1, 72 h, SKHEP1, liver): 240 nM | IC50 (Homo sapiens, SK-LMS-1, 72 h, SKLMS1, uterus): 3740 nM | IC50 (Homo sapiens, SK-MEL-5, 72 h, SKMEL5, skin): > 50000 nM | IC50 (Homo sapiens, SK-MEL-28, 72 h, SKMEL28, skin): 2630 nM | IC50 (Homo sapiens, SK-N-AS, SKNAS, brain): 4410 nM | IC50 (Homo sapiens, SK-N-SH, SKNSH, brain): > 50000 nM | IC50 (Homo sapiens, SK-OV-3, 72 h, SKOV3, ovary): 890 nM | IC50 (Homo sapiens, SNB-75, 72 h, SNB75, brain): 840 nM | IC50 (Homo sapiens, SU-DHL10, 72 h, SU-DHL-10, hematological): 500 nM | IC50 (Homo sapiens, SU-DHL-6, 72 h, SU-DHL-6, hematological): 800 nM | IC50 (Homo sapiens, SW-620, 72 h, SW620, colon): 2640 nM | IC50 (Homo sapiens, TE-671, 72 h, TE671, muscle): 1750 nM | IC50 (Homo sapiens, THP-1, 72 h, THP-1, hematological): 970 nM | IC50 (Homo sapiens, U2OS, bone): 5320 nM | IC50 (Homo sapiens, U-87 MG, U87MG, brain): 500 nM | IC50 (Homo sapiens, UMUC3, 72 h, UMUC3, bladder): 1160 nM | IC50 (Homo sapiens, UO-31, 72 h, UO31, kidney): 660 nM | IC50 (Homo sapiens, WSU-NHL, hematological): 220 nM | IC50 (NCI-H358M, NCIH358M, lung): 40 nM | IC50 (PBMC, hematological): 350 nM | IC50 (RD-ES, RDES, bone): 1620 nM
SMILES: N#C[C@]1(CO)O[C@@H](n2ccc(N)nc2=O)C[C@@H]1O [compound 29]
